Source: patent US6503524B1, “Delivery of a skin health benefit agent to a treated substrate for transfer to skin” (Kimberly-Clark Worldwide, Inc., priority 2000, dated 2003)
Like-named read-outs stand apart in the source and are kept apart here.

Key:
[1] = test system: proteolytic activity of a fecal extract; conditions: zinc sulfate heptahydrate 0-1 mM; FIG. 7
Experimental: The supernatant was filtered through 0.22 micron cellulose acetate filters and stored at −80° C. until use.

[2] = test system: EpiDerm™ 201 synthetic skin (keratinocytes), interleukin-1 alpha release
Description: The synthetic skin, EpiDerm™ 201 (MatTek Corporation, Ashland, Mass. contains keratinocytes that release interleukin-1 alpha (IL-1 alpha) when subjected to proteases in the fecal extract. When the IL-1 alpha was released, it diffused from the skin into the fluid below the EpiDerm™. Samples of this fluid were taken and analyzed for the presence of the IL-1 alpha. Higher levels of IL-1 alpha was indicative of greater skin irritation.
Prior to application onto the EpiDerm™, the fecal extract (10.4 μL) was pre-incubated for 30 minutes at room temperature with 250 mM zinc sulfate heptahydrate in water (2.6 μL). Water only and fecal extract only samples served as controls. After application of the samples to the EpiDerm™, 25 μL aliquots were removed from the underlying media at 8, 12, and 24 hours to test for the presence of the IL-1 alpha. The aliquots were directly added to a 1.5 mL micro-centrifuge tube containing 225 μL of filtered-sterilized 20 mM tris-HCl, pH 8.0, 1% BSA buffer and stored at −80° C. After all samples were collected, IL-1 alpha levels were quantified using the R&D Systems Interleukin-1 alpha Quantikine Kit (R&D Systems, Minneapolis, Minn.

[3] = test system: proteolytic activity of infant urine; conditions: zinc sulfate heptahydrate 0-50 mM; FIG. 8
Experimental: The proteolytic activity of infant urine was measured using fluorescently labeled casein.
Two (2) infant urine (100 μL) samples were added to wells of a 96 white plate (Dynex) containing 80 μL of 12.5 μg/ml solution of a fluorescent dye-labeled casein substrate (EnzChek Protease Assay Kit (E-6639)) in 100 mM Tris-HCl, pH 8.0, and allowed to incubate for 60 minutes at 37° C. […] Reaction of the infant urine with the casein substrate cleaved the fluorescent dye from the substrate. RFUs were collected using the Fluoroskan Ascent System with excitation and emission filters of 485 and 538 nm, respectively. Data were collected each minute for 60 minutes at 37° C. and rates (RFU/min) from 30-50 minutes were calculated for each zinc concentration. Using the uninhibited wells as 100% protease activity, percent of urine proteolytic activity remaining was determined for each concentration of zinc inhibitor (Inhibited Rate/Uninhibited rate* 100).

[4] = not given; remark: listed apart in the source
[5] = 1.0 mM zinc sulfate heptahydrate
[6] = 2.5 mM zinc sulfate heptahydrate
[7] = 5.0 mM zinc sulfate heptahydrate
[8] = 10.0 mM zinc sulfate heptahydrate
[9] = 20.0 mM zinc sulfate heptahydrate
[10] = .1 mM zinc sulfate heptahydrate
[11] = increased concentration of zinc sulfate heptahydrate (Table 1)

## O.O.O.O.O.O.O.O=S(=O)([O-])[O-].[Zn+2] [zinc sulfate heptahydrate]
[1]
  inhibition of hydrolysis of casein by the fecal extract (percent of fecal proteolytic activity remaining): effectively inhibited the hydrolysis of casein by the fecal extract in a dose-dependent manner
[2]; 0, 25, 50, 125 and 250 mM zinc sulfate heptahydrate, FIG. 10
  proteolytic activity of fecal extract on synthetic skin (IL-1 alpha release): effectively inhibits the proteolytic activity of fecal extract in a dose-dependent manner
[2]; FE+zinc (250 mM, 2.6 μL) relative to FE+water, 8, 12 and 24 hours, FIG. 9
  interleukin-1 alpha released into the underlying media: reduced the amount of interleukin-1 alpha released
[3]
  inhibition of hydrolysis of casein by infant urine (percent of urine proteolytic activity remaining): effectively inhibited the hydrolysis of casein by infant urine in a dose-dependent manner
[5]
  pH, Infant Urine Example F: 8.0
  pH, Infant Urine Example G: 7.0
  pH, Infant Urine Example H: 7.5
[6]
  pH, Infant Urine Example F: 7.5-8.0
  pH, Infant Urine Example G: 6.5
  pH, Infant Urine Example H: 7.0-7.5
[7]
  pH, Infant Urine Example F: 7.5
  pH, Infant Urine Example G: 5.5
  pH, Infant Urine Example H: 7.0
[8]
  pH, Infant Urine Example F: 7.0
  pH, Infant Urine Example G: 5.0
  pH, Infant Urine Example H: 6.5
[9]
  pH, Infant Urine Example F: 7.0
  pH, Infant Urine Example G: 5.0
  pH, Infant Urine Example H: 6.5
[10]
  pH, Infant Urine Example F: 8.5
  pH, Infant Urine Example G: 7.0
  pH, Infant Urine Example H: 8.0
[11]
  reduction of pH of the infant urine samples: 1.5-2.0 pH units
[4]; [5]
  pH, Fecal Extract Example B: 6.5
[4]; [6]
  pH, Fecal Extract Example B: 6.0-6.5
[4]; [7]
  pH, Fecal Extract Example B: 6.0
[4]; [8]
  pH, Fecal Extract Example B: 5.5
[4]; [9]
  pH, Fecal Extract Example B: 5.5
[4]; [10]
  pH, Fecal Extract Example B: 6.5
[4]; [11]
  reduction of pH of the fecal extract sample: 1 pH unit
